The target of assay [1] is eIF2Bα (cteIF2Bα). In words: ITC. The assay is classed as binding, Thermochaetoides thermophila.
Assay [2] addresses eIF2Bα (cteIF2Bα). Kind of assay: ITC. It is filed as binding, Thermochaetoides thermophila. This is another data set of the same source.
For assay [3], the target named is eIF2Bα (cteIF2Bα). In words: ITC. It is filed as binding, Thermochaetoides thermophila. The source holds these as a separate data set.
Assay [4] addresses Chaetomium thermophilum eIF2Bα (Chaetomium thermophilum). In words: SEC-MALS. Background: In gel filtration, larger molecules generally elute earlier.
In assay [5] the target is eIF2B(βδ)2 complex (Chaetomium thermophilum, untagged full-length subunits) (Chaetomium thermophilum). Kind of assay: SEC-MALS.

Like-named read-outs stand apart in the source and are kept apart here.

The Kd is a measure of binding affinity in units of concentration. Molecule `Nc1nc2c(ncn2[C@@H]2O[C@H](COP(=O)(O)O)[C@@H](O)[C@H]2O)c(=O)[nH]1` [GMP] gave a dissociation constant (Kd) at eIF2Bα (cteIF2Bα) [1] of 2.9 µM.

On to `Nc1ccn([C@@H]2O[C@H](COP(=O)(O)O)[C@@H](O)[C@H]2O)c(=O)n1` [CMP], for which the dissociation constant Kd on eIF2Bα (cteIF2Bα) [2] worked out at 65 µM. This lies in the double-digit micromolar range.

The molecule `Nc1ncnc2c1ncn2[C@@H]1O[C@H](COP(=O)(O)O)[C@@H](O)[C@H]1O` [AMP] came in with a Kd at eIF2Bα (cteIF2Bα) [3] of 10 µM.

Usually stoichiometry N stands for a count of units in the complex or per binding partner. For “Chaetomium thermophilum eIF2Bα (natural protein)”, the stoichiometry N in assay [4] is 2; in assay [5], 1.
